In patent publication US20240277603A1, “COSMETIC USE OF AN OILY EXTRACT FROM DISTILLATION RESIDUE OF IMMORTELLE AS A SKIN BRIGHTENING AGENT” (LABORATOIRES M&L, priority 2021, published 2024):

Key:
[1] = test system: mouse B16 melanocytes; test: Inhibition of melanin production by NDP-MSH-stimulated B16 melanocytes (melanin assay, absorbance at 405 nm); type: cell-based; settings: for inhibition of pigmentation (melanin production): Example 3, FIG. 3, B16 + NDP-MSH, extract 0.035%, hexylresorcinol 5 μg/mL, alone or combined, kojic acid and vitamin C positive controls; for efficacy as positive control for pigmentation inhibition (melanin production): Example 2, FIGS. 1 and 2, B16 + 0.1 μM NDP-MSH, 72 h, kojic acid 3 mM, vitamin C (ascorbyl glucoside) 0.5%, ***p<0.001, ****p<0.0001
Procedure: All the conditions were tested in triplicate.
For the melanin assay, the medium in each well was aspirated and the cells lyzed by adding 50 μl of 1M NaOH to the cell lawn. The plates were shaken for 30 minutes at room temperature, and the lyzate was then transferred to glass flasks and incubated overnight at 95° C. After incubation, the lyzates were centrifuged at 2000 rpm to remove the cell debris. The absorbance of the supernatant was read at 405 nm, reflecting the amount of melanin in each well, and the average of the three replicates was determined for each condition. A well of cells not treated with NDP-MSH was used as a control, and its OD value subtracted from all the OD values of the other wells. The percentage of melanin inhibition was then calculated according to the formula:
100−((melanin amount in test condition/melanin amount in untreated control)×100)
The significance of the results was evaluated using a one-way Anova test (for the distillation residue extract and the oily extract of flowering tops) or Student's t test (for kojic acid and vitamin C).
The results were compared with the effect obtained with the extract according to the invention alone and hexylresorcinol alone, used at the same doses.

[2] = test system: mouse B16 melanocytes; settings: Example 3, preliminary cytotoxicity study on the cells
Procedure: Melanocytes (mouse line B16) were seeded in 96-well plates at 2000 cells per well in phenol red-free DMEM medium containing 10% fetal calf serum, 2 mM glutamine, 1 mM sodium pyruvate and 100 μg/ml normocin. The following day, the cells were treated with 0.1 μM of NDP-MSH to induce pigmentation. Under the test conditions, in the presence of NDP-MSH, kojic acid at 3 mM and vitamin C (ascorbyl glucoside) at 0.5% were used as positive controls for pigmentation inhibition, and the extracts to be evaluated were tested at several concentrations. All the conditions were tested in triplicate. The cells were incubated at 37° C., 5% CO2 for 72 h in the presence of the extracts and positive controls.

Row | Structure (SMILES) | inhibition of pigmentation (melanin production) [1] | maximum non-cytotoxic dose [2] [µg/mL] | efficacy as positive control for pigmentation inhibition (melanin production) [1]
1 | CCCCCCc1ccc(O)cc1O [hexylresorcinol, 4-hexyl-1,3-phenylenediol] | confirms the depigmenting efficacy | 10 | –
2 | O=c1cc(CO)occ1O [kojic acid] | demonstrating the efficacy | – | demonstrating the efficacy
3 | O=C1O[C@H]([C@@H](O)CO)C(O)=C1O[C@H]1O[C@H](CO)[C@@H](O)[C@H](O)[C@H]1O [vitamin C, ascorbyl glucoside] | demonstrating the efficacy | – | demonstrating the efficacy
